Reference: the supplement of paper PMC10307832

What was measured:
Assay in all cases: relative viability (nuclei count vs DMSO), 5 days (fraction); higher = more cells survive
[1] = tested on: NCI-H2087
Outline: (§1)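 After 5 days of treatment, lung cancer cells in 1536-well plates were fixed and stained in a single step (final 0.05% Triton X-100, 1% formaldehyde, 1 ug/ml Hoechst) and their nuclei counted on 4× images. Treatment had been applied by pin tool the day after seeding as one drug alone or as a fixed anchor-drug dose with five library-drug doses (not always all listed) in √10 steps. Relative viability is the nuclei count of treated wells divided by that of vehicle wells, and values are medians of duplicate plates.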

[2] = tested on: NCI-H2023
Outline: as §1

[3] = tested on: HCC-44
Outline: as §1

[4] = tested on: 201T
Outline: as §1

[5] = tested on: NCI-H2126
Outline: as §1

[6] = tested on: LOU-NH91
Outline: as §1

[7] = tested on: HARA
Outline: as §1

[8] = tested on: NCI-H647
Outline: as §1

[9] = tested on: NCI-H1993
Outline: as §1

[10] = tested on: LCLC-103H
Outline: as §1

[11] = tested on: BEN
Outline: as §1

[12] = tested on: EMC-BAC-2
Outline: as §1

[13] = tested on: NCI-H23
Outline: as §1

[14] = tested on: NCI-H441
Outline: as §1

[15] = tested on: NCI-H1395
Outline: as §1

[16] = tested on: NCI-H650
Outline: as §1

[17] = tested on: NCI-H727
Outline: as §1

[18] = tested on: NCI-H3122
Outline: as §1

[19] = tested on: NCI-H838
Outline: as §1

[20] = tested on: NCI-H2347
Outline: as §1

[21] = tested on: NCI-H596
Outline: as §1

[22] = tested on: NCI-H522
Outline: as §1

## Cc1sc2c(c1C)C(c1ccc(Cl)cc1)=N[C@@H](CC(=O)OC(C)(C)C)c1nnc(C)n1-2 [JQ1] + Nc1ncn([C@H]2C[C@H](O)[C@@H](CO)O2)c(=O)n1 [Decitabine] (partner 2 µM)
[1]; first compound 0.04 µM
  relative viability: 0.316
[1]; first compound 0.1265 µM
  relative viability: 0.251
[1]; first compound 0.4 µM
  relative viability: 0.262
[1]; first compound 1.265 µM
  relative viability: 0.151
[1]; first compound 4 µM
  relative viability: 0.18
[2]; first compound 0.04 µM
  relative viability: 0.233
[2]; first compound 0.1265 µM
  relative viability: 0.228
[2]; first compound 0.4 µM
  relative viability: 0.198
[2]; first compound 1.265 µM
  relative viability: 0.14
[2]; first compound 4 µM
  relative viability: 0.13
[3]; first compound 0.04 µM
  relative viability: 0.955
[3]; first compound 0.1265 µM
  relative viability: 0.63
[3]; first compound 0.4 µM
  relative viability: 0.834
[3]; first compound 1.265 µM
  relative viability: 0.903
[3]; first compound 4 µM
  relative viability: 0.516
[4]; first compound 0.04 µM
  relative viability: 0.88
[4]; first compound 0.4 µM
  relative viability: 0.694
[4]; first compound 1.265 µM
  relative viability: 0.527
[4]; first compound 4 µM
  relative viability: 0.453
[5]; first compound 0.04 µM
  relative viability: 0.591
[5]; first compound 0.1265 µM
  relative viability: 0.584
[5]; first compound 0.4 µM
  relative viability: 0.561
[5]; first compound 1.265 µM
  relative viability: 0.411
[5]; first compound 4 µM
  relative viability: 0.428
[6]; first compound 0.04 µM
  relative viability: 0.826
[6]; first compound 0.1265 µM
  relative viability: 0.725
[6]; first compound 0.4 µM
  relative viability: 0.554
[6]; first compound 1.265 µM
  relative viability: 0.491
[6]; first compound 4 µM
  relative viability: 0.521
[7]; first compound 0.04 µM
  relative viability: 0.617
[7]; first compound 0.1265 µM
  relative viability: 0.49
[7]; first compound 0.4 µM
  relative viability: 0.457
[7]; first compound 1.265 µM
  relative viability: 0.385
[7]; first compound 4 µM
  relative viability: 0.249
[8]; first compound 0.04 µM
  relative viability: 0.309
[8]; first compound 0.1265 µM
  relative viability: 0.331
[8]; first compound 0.4 µM
  relative viability: 0.344
[8]; first compound 1.265 µM
  relative viability: 0.25
[8]; first compound 4 µM
  relative viability: 0.203
[9]; first compound 0.04 µM
  relative viability: 0.586
[9]; first compound 0.1265 µM
  relative viability: 0.636
[9]; first compound 0.4 µM
  relative viability: 0.553
[9]; first compound 1.265 µM
  relative viability: 0.538
[9]; first compound 4 µM
  relative viability: 0.475
[10]; first compound 0.04 µM
  relative viability: 0.684
[10]; first compound 0.1265 µM
  relative viability: 0.575
[10]; first compound 0.4 µM
  relative viability: 0.544
[10]; first compound 1.265 µM
  relative viability: 0.48
[10]; first compound 4 µM
  relative viability: 0.542
[11]; first compound 0.04 µM
  relative viability: 0.712
[11]; first compound 0.1265 µM
  relative viability: 0.578
[11]; first compound 0.4 µM
  relative viability: 0.63
[11]; first compound 1.265 µM
  relative viability: 0.511
[11]; first compound 4 µM
  relative viability: 0.38
[12]; first compound 0.04 µM
  relative viability: 0.947
[12]; first compound 0.4 µM
  relative viability: 0.944
[12]; first compound 1.265 µM
  relative viability: 0.726
[12]; first compound 4 µM
  relative viability: 0.605
[13]; first compound 0.04 µM
  relative viability: 0.323
[13]; first compound 0.1265 µM
  relative viability: 0.3
[13]; first compound 0.4 µM
  relative viability: 0.303
[13]; first compound 1.265 µM
  relative viability: 0.244
[13]; first compound 4 µM
  relative viability: 0.211
[14]; first compound 0.04 µM
  relative viability: 0.257
[14]; first compound 0.1265 µM
  relative viability: 0.266
[14]; first compound 0.4 µM
  relative viability: 0.251
[14]; first compound 1.265 µM
  relative viability: 0.152
[14]; first compound 4 µM
  relative viability: 0.17
[15]; first compound 0.04 µM
  relative viability: 0.683
[15]; first compound 0.1265 µM
  relative viability: 0.701
[15]; first compound 0.4 µM
  relative viability: 0.71
[15]; first compound 1.265 µM
  relative viability: 0.587
[15]; first compound 4 µM
  relative viability: 0.457
[16]; first compound 0.04 µM
  relative viability: 0.278
[16]; first compound 0.1265 µM
  relative viability: 0.305
[16]; first compound 0.4 µM
  relative viability: 0.316
[16]; first compound 1.265 µM
  relative viability: 0.251
[16]; first compound 4 µM
  relative viability: 0.249
[17]; first compound 0.04 µM
  relative viability: 1
[17]; first compound 0.1265 µM
  relative viability: 0.877
[17]; first compound 0.4 µM
  relative viability: 0.506
[17]; first compound 1.265 µM
  relative viability: 0.597
[17]; first compound 4 µM
  relative viability: 0.649
[18]; first compound 0.04 µM
  relative viability: 0.489
[18]; first compound 0.1265 µM
  relative viability: 0.395
[18]; first compound 0.4 µM
  relative viability: 0.517
[18]; first compound 1.265 µM
  relative viability: 0.343
[18]; first compound 4 µM
  relative viability: 0.38
[19]; first compound 0.04 µM
  relative viability: 0.458
[19]; first compound 0.1265 µM
  relative viability: 0.371
[19]; first compound 0.4 µM
  relative viability: 0.347
[19]; first compound 1.265 µM
  relative viability: 0.282
[19]; first compound 4 µM
  relative viability: 0.235
[20]; first compound 0.04 µM
  relative viability: 0.664
[20]; first compound 0.1265 µM
  relative viability: 0.6
[20]; first compound 0.4 µM
  relative viability: 0.58
[20]; first compound 1.265 µM
  relative viability: 0.506
[20]; first compound 4 µM
  relative viability: 0.437
[21]; first compound 0.04 µM
  relative viability: 1.04
[21]; first compound 0.1265 µM
  relative viability: 0.978
[21]; first compound 0.4 µM
  relative viability: 0.679
[21]; first compound 1.265 µM
  relative viability: 0.611
[21]; first compound 4 µM
  relative viability: 0.62
[22]; first compound 0.04 µM
  relative viability: 0.656
[22]; first compound 0.1265 µM
  relative viability: 0.635
[22]; first compound 0.4 µM
  relative viability: 0.661
[22]; first compound 1.265 µM
  relative viability: 0.473
[22]; first compound 4 µM
  relative viability: 0.501
